From BindingDB's records for doi:10.7270/Q2TX3CTT (Broad Institute, 2010)
pEC50: −log10 of the molar value.

Biological target: Glycogen synthase kinase-3 beta (Homo sapiens, UniProt P49841)
Test: GSK3beta kinase inhibitor potency, dose response, biochemical, luminescence, cell-free homogeneous, retest (AID 434954)

Glycogen synthase kinase-3 beta, sequence (P49841 whole entry): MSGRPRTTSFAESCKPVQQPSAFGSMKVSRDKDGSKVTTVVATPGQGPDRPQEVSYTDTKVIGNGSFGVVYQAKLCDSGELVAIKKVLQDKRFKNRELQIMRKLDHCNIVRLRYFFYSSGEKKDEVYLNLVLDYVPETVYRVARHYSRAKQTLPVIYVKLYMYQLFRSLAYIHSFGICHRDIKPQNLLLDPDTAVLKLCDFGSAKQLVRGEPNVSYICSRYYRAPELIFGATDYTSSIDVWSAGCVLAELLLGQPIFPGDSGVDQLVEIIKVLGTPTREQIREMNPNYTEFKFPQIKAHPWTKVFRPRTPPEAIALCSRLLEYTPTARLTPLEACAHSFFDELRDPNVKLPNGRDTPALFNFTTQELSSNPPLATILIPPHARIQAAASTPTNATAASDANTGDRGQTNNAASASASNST

SMILES | pEC50
O=C(CN(Cc1cccs1)C(=O)CCC(=O)Nc1ccccn1)NCc1ccccc1 [N'-[2-oxo-2-[(phenylmethyl)amino]ethyl]-N-(2-pyridinyl)-N'-(thiophen-2-ylmethyl)butanediamide] | < 3.52
CCCc1cc(NCc2ccccn2)n2nc(C)c(-c3ccccc3)c2n1 [MLS000762884] | < 3.52
CN(C)C=NC(=O)C(C#N)C1=Nc2ccccc2CC1 (stereo not given) | 4.70
O=C(CSc1nnc(CNC(=O)c2cccc(C(F)(F)F)c2)o1)NC1CCCCC1 | < 3.52
CSc1nc(N)c2c3c(sc2n1)CN(C)CC3 [7-methyl-2-methylsulfanyl-6,8-dihydro-5H-pyrido[4,5]thieno[1,2-c]pyrimidin-4-amine] | 4.14
CCc1ccccc1-n1c(O)cc(N2CCc3ccccc32)c1O [SMR000285101] | < 3.52
Fc1ccccc1CN=Nc1ncnc2nc[nH]c12 | 4.95
O=C(Oc1ccc(Cl)cc1)N1CCCCC1 [(4-chlorophenyl) piperidine-1-carboxylate] | < 3.52
Cc1cc(NC(=O)COc2cccnc2[N+](=O)[O-])no1 [N-(5-methyl-1,2-oxazol-3-yl)-2-(2-nitropyridin-3-yl)oxyacetamide] | < 3.52
CC(N=O)c1ncc(C(F)(F)F)cc1Cl (stereo not given) [MLS000763457] | < 3.52
O=C(c1ccc(Cl)cc1)c1coc2ccc(O)cc12 [(4-Chloro-phenyl)-(5-hydroxy-benzofuran-3-yl)-methanone] | 4.87
CCC(=O)Nc1ccc(Nc2nc(C)c([N+](=O)[O-])c(Nc3ccc(NC(=O)CC)cc3)n2)cc1 [N,N'-[(6-methyl-5-nitro-2,4-pyrimidinediyl)bis(imino-4,1-phenylene)]dipropanamide] | < 3.52
Cc1cccc(/C=C2/Sc3ccc(C(=O)NCCN4CCCC4)cc3NC2=O)c1 [(2E)-2-[(3-methylphenyl)methylidene]-3-oxidanylidene-N-(2-pyrrolidin-1-ylethyl)-4H-1,4-benzothiazine-6-carboxamide] | 5.20
Nc1nc(NCc2ccccc2)nc(Nc2cccc(F)c2)c1[N+](=O)[O-] [N-Benzyl-N'-(3-fluoro-phenyl)-5-nitro-pyrimidine-2,4,6-triamine] | 3.97
CCn1c(SCC(=O)Nc2ccccc2Cl)nnc1C1CC1 [N-(2-chlorophenyl)-2-[(5-cyclopropyl-4-ethyl-1,2,4-triazol-3-yl)sulfanyl]ethanamide] | < 3.52
CCOC(=O)C1C(C)=Nc2ncnn2C1c1ccccc1F (stereo not given) [ethyl 7-(2-fluorophenyl)-5-methyl-4,7-dihydro[1,2,4]triazolo[1,5-a]pyrimidine-6-carboxylate] | < 3.52
CCc1ccc(Oc2ncnc(N)c2[N+](=O)[O-])cc1 [6-(4-ethylphenoxy)-5-nitro-4-pyrimidinamine] | < 3.52
COC(=O)c1sccc1NC(=O)c1ccc(Br)s1 [3-[(5-bromothiophene-2-carbonyl)amino]thiophene-2-carboxylic acid methyl ester] | < 3.52
O=C(O)CCn1cc(/C=C\C(=O)c2ccc(Cl)cc2)c(-c2cccc(Br)c2)n1 [3-[3-(3-bromophenyl)-4-[(Z)-3-(4-chlorophenyl)-3-oxoprop-1-enyl]pyrazol-1-yl]propanoic acid] | < 3.52
O=C(c1cccs1)c1coc2ccc(O)cc12 | 5.33
Cc1c(Br)c([N+](=O)[O-])nn1CCCC(=O)N1CCN(c2ccccc2)CC1 [SMR000206162] | < 3.52
COc1ccc(-c2nn(-c3ccccc3)cc2CO)cc1OC [MLS000110763] | < 3.52
O=c1[nH]c(=S)n(-c2ccccc2F)c(O)c1C=NCc1ccco1 [(5E)-1-(2-fluorophenyl)-5-[(furan-2-ylmethylamino)methylidene]-2-sulfanylidene-1,3-diazinane-4,6-dione] | 4.10
O=C(O)CNCC1COc2ccccc2O1 (stereo not given) [MLS000068078] | < 3.52

SMILES | pEC50
COc1ccc2occ(C(=O)c3cccs3)c2c1 | 5.39
CCn1c(C=CN(C(C)=O)c2ccccc2)[n+](CC)c2cc(Cl)ccc21 [N-[(E)-2-(5-chloro-1,3-diethylbenzimidazol-1-ium-2-yl)ethenyl]-N-phenylacetamide;iodide] | < 3.52
CCN(CC)S(=O)(=O)c1cccc(NC(=O)COc2ccc(Cl)cc2Br)c1 [2-(2-bromanyl-4-chloranyl-phenoxy)-N-[3-(diethylsulfamoyl)phenyl]ethanamide] | < 3.52
COc1ccc2nc(Cl)cc(Cl)c2c1 [SMR000430028] | < 3.52
COc1cccc2cc(C(C)=O)c(=O)oc12 [3-acetyl-8-methoxy-2H-chromen-2-one] | < 3.52
Nc1nc(NCc2ccccc2)nc(Nc2ccc(F)cc2)c1[N+](=O)[O-] [2-N-benzyl-4-N-(4-fluorophenyl)-5-nitropyrimidine-2,4,6-triamine] | < 3.52
Cc1cc(C)n(S(=O)(=O)c2ccc(C)c(C)c2)n1 [SMR000515396] | < 3.52
COC1=CC(=O)CC(C)C12Oc1cc(OC)cc(OC)c1C2=O (stereo not given) [3',4,6-trimethoxy-5'-methyl-spiro[1-benzofuran-2,4'-cyclohex-2-ene]-1',3-dione] | < 3.52
O=C(COC(=O)c1cc(=O)c2ccccc2o1)NC1CCCC1 [MLS001017387] | < 3.52
COc1cccc2cc(C(=O)N(C)C)c(=O)oc12 [8-methoxy-N,N-dimethyl-2-oxo-1-benzopyran-3-carboxamide] | < 3.52
CSc1nc(NCC(C)O)c2c3c(sc2n1)CN(C)CC3 (stereo not given) [1-[(7-methyl-2-methylsulfanyl-6,8-dihydro-5H-pyrido[4,5]thieno[1,2-c]pyrimidin-4-yl)amino]propan-2-ol] | 4.74
O=C(Nc1cc(-c2ccccc2)n[nH]1)c1ccccc1 [SMR000459251] | < 3.52
COc1cc(C=C2SC(Nc3ccc(O)cc3)=NC2=O)cc(OC)c1OC [SMR000414809] | < 3.52
CCc1nnc(NC(=O)c2cccc(OC)c2)s1 [MLS000104553] | < 3.52
Brc1ccc(CSc2nnc(-c3cccnc3)o2)cc1 [SMR000292494] | < 3.52
COc1cccc(Nc2nc(-c3ccccc3)nc3ccccc23)c1 | < 3.52
O=C(NCCN1C(=O)S/C(=C\c2ccc(Cl)c(Cl)c2)C1=O)C1COc2ccccc2O1 (stereo not given) [SMR000254587] | < 3.52
O=c1cc(-c2ccncc2)oc2ccccc12 [2-(4-pyridyl)chromone] | 4.75
O=Cc1cn(CCC(=O)O)nc1-c1cccc(Br)c1 [3-[3-(3-bromophenyl)-4-formylpyrazol-1-yl]propanoic acid] | < 3.52
COc1ccc(C2c3c(n[nH]c3C)N=C3CCCC(=O)C32)cc1OC (stereo not given) [SMR000353889] | < 3.52
Fc1ccccc1Cn1c2[n+](c3ccc(C(F)(F)F)cc31)CCCCC2 | < 3.52
O=C1C[C@@H](c2ccc(O)cc2)Oc2cc(O)ccc21 [7-Hydroxy-2-(4'-hydroxyphenyl)chroman-4-one] | < 3.52
COc1ccc2c(C)c(CC(=O)N3CCN(C(=O)C4COc5ccccc5O4)CC3)c(=O)oc2c1 (stereo not given) | < 3.52
COc1ccc(Nc2nc(N)c([N+](=O)[O-])c(NCc3ccccc3)n2)cc1 [MLS000332775] | 4.99

SMILES | pEC50
CC(C)N1CC(C(=O)Nc2ccc(Br)c(Cl)c2)CC1=O (stereo not given) [N-(4-bromo-3-chlorophenyl)-5-oxo-1-propan-2-yl-3-pyrrolidinecarboxamide] | < 3.52
COc1ccc(N2CCN(CCNC(=O)c3nnc(Cc4c(F)cccc4Cl)o3)CC2)cc1 [MLS000083714] | < 3.52
Nc1nc(O)c(N=Nc2ccc(S(N)(=O)=O)cc2)c(=O)[nH]1 [SMR000543013] | < 3.52
O=C(NC1CCCCCC1)C1CCCN(S(=O)(=O)c2cccs2)C1 (stereo not given) [N-cycloheptyl-1-thiophen-2-ylsulfonylpiperidine-3-carboxamide] | < 3.52
COc1c(CC=C(C)C)cc(C2CC(=O)c3c(O)cc(O)cc3O2)c(CC=C(C)C)c1O (stereo not given) [5,7-dihydroxy-2-[3-hydroxy-4-methoxy-2,5-bis(3-methylbut-2-enyl)phenyl]-2,3-dihydrochromen-4-one] | < 3.52
NNc1ncnc2c1cnn2-c1ccccc1 [(1-phenylpyrazolo[3,4-d]pyrimidin-4-yl)diazane] | 4.89
CCN1CCN(c2cc(C)c3cc(NC(=O)c4cccc(OC)c4)ccc3n2)CC1 [N-[2-(4-ethylpiperazin-1-yl)-4-methyl-quinolin-6-yl]-3-methoxy-benzamide] | < 3.52
CC(C(=O)NCC1CCCO1)n1cc([N+](=O)[O-])cn1 (stereo not given) [SMR000296777] | < 3.52
CCn1c(S)nnc1-c1ccc([N+](=O)[O-])cc1 [SMR000176027] | < 3.52
CNC(=O)NC(=O)CSc1nc2ccccc2n1CCOC [2-[1-(2-methoxyethyl)benzimidazol-2-yl]sulfanyl-N-(methylcarbamoyl)ethanamide] | < 3.52
O=C(O)c1cccc(Nc2ccnc(Nc3cccc(C(=O)O)c3)n2)c1 [MLS001213333] | < 3.52
Cc1ccccc1CSc1nnc([C@@H]2CCCN2)o1 [MLS000333752] | < 3.52
CC(C)c1ccc(NS(=O)(=O)c2ccc(Cl)nc2)cc1 [6-chloro-N-(4-propan-2-ylphenyl)pyridine-3-sulfonamide] | < 3.52
Nc1nc(NCCc2ccccc2)nc(NCCO)c1[N+](=O)[O-] [MLS001213372] | 5.70
CC1(C)CC2CC(C)(CN2S(=O)(=O)c2ccc(C(=O)Nc3ccc(Cl)c(S(=O)(=O)N4CCOCC4)c3)cc2)C1 (stereo not given) [N-[4-chloro-3-(4-morpholinylsulfonyl)phenyl]-4-[(3,3,5-trimethyl-7-azabicyclo[3.2.1]octan-7-yl)sulfonyl]benzamide] | < 3.52
N#Cc1c(-c2ccccc2)nc(-c2cccnc2)[nH]c1=O [MLS001165441] | < 3.52
CC(C(=O)Nc1cccnc1)n1cc([N+](=O)[O-])cn1 (stereo not given) [MLS000729046] | < 3.52
CC1Cc2cc(S(=O)(=O)N3CCN(c4ccccc4)CC3)ccc2N1C(=O)C1CC1 (stereo not given) | < 3.52
CCNC(=O)NC(=O)CSc1nc2ccccc2n1CCOC [SMR000154706] | < 3.52
COc1ccc2occ(C(=O)c3ccccc3)c2c1 [(5-methoxy-1-benzofuran-3-yl)-phenyl-methanone] | 4.64
COc1cccc2c1cc1c(=O)n(CC(=O)N3CCC(C)CC3)nc(C)n12 | < 3.52
CCC(C)Nc1nc(N)c([N+](=O)[O-])c(Nc2ccccc2OC)n1 (stereo not given) [SMR000434817] | 6.20
